According to ChEMBL document CHEMBL1141509, “Development of pyridopyrimidines as potent Akt1/2 inhibitors” (Bioorg Med Chem Lett, 2008):

Key:
[1] = biological target: T1, RAC-beta serine/threonine-protein kinase (Homo sapiens, UniProt P31751); assay: Inhibition of Akt2 in human C33A cells by immunoprecipitation kinase assay; assay type: cell-based, C-33-A
[2] = biological target: T1, RAC-beta serine/threonine-protein kinase; assay: Inhibition of Akt2
[3] = biological target: T2, RAC-alpha serine/threonine-protein kinase (Homo sapiens, UniProt P31749); assay: Inhibition of Akt1
T2 sequence (P31749 whole entry): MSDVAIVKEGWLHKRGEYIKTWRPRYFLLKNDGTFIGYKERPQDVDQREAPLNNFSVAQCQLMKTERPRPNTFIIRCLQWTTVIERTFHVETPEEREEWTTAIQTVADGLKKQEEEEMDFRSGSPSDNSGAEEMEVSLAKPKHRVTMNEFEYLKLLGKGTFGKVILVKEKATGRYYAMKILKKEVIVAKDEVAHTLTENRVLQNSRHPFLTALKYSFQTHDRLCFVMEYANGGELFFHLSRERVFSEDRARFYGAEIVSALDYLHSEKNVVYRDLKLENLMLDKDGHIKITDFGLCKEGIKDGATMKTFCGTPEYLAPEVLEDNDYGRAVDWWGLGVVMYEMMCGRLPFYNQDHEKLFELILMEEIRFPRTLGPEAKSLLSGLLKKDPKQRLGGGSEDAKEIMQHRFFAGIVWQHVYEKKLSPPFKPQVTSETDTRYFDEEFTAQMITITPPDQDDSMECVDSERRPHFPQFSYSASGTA

[4] = biological target: T2, RAC-alpha serine/threonine-protein kinase; assay: Inhibition of human Akt1 in human C33A cells by immunoprecipitation kinase assay; assay type: cell-based, C-33-A
[5] = biological target: RAC-gamma serine/threonine-protein kinase (Homo sapiens, UniProt Q9Y243); assay: Inhibition of Akt3
RAC-gamma serine/threonine-protein kinase, sequence (Q9Y243 whole entry): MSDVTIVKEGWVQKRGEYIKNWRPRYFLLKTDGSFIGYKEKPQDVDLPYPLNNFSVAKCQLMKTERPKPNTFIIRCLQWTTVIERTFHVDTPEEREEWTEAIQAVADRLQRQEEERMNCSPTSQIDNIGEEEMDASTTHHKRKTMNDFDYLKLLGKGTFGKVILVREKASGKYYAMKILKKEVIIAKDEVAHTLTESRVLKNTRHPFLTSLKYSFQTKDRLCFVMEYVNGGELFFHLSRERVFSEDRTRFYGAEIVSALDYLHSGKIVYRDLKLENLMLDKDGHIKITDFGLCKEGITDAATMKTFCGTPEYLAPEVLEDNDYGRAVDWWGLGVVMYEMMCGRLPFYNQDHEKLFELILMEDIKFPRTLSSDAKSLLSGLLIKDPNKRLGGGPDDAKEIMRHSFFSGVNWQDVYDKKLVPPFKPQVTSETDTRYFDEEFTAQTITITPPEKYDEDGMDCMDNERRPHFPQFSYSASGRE

[6] = Inhibition of PKC
[7] = Inhibition of PKA
[8] = biological target: T3, Serine/threonine-protein kinase Sgk1 (Homo sapiens, UniProt O00141); assay: Inhibition of SGK
T3 sequence (O00141 whole entry): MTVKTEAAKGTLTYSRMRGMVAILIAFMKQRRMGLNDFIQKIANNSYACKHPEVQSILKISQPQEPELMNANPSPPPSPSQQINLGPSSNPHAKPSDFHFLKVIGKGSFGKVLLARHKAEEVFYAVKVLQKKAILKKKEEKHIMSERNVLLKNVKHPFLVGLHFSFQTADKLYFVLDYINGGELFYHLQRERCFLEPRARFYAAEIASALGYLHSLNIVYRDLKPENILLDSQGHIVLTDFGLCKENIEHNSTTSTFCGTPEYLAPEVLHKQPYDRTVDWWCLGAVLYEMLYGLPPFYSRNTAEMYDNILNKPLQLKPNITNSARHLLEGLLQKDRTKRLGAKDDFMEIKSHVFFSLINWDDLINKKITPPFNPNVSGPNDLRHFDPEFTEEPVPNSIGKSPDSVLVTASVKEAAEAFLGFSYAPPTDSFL

T1 sequence (P31751 whole entry): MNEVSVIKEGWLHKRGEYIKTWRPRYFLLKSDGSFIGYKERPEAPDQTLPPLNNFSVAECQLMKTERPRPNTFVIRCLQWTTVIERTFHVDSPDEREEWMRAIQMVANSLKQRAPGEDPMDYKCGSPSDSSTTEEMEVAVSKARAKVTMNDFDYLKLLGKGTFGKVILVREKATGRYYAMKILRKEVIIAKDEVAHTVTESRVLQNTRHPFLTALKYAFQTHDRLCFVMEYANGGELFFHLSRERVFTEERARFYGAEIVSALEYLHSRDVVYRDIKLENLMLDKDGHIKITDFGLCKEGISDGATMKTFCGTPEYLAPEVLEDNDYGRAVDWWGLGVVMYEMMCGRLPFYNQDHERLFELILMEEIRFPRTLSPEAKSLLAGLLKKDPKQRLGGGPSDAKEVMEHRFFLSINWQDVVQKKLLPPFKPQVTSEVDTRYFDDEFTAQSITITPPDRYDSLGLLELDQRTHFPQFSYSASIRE

Row | IC50 [1] [nM] | IC50 [2] [nM] | IC50 [3] [nM] | IC50 [4] [nM] | IC50 [5] [nM] | IC50 [6] [nM] | IC50 [7] [nM] | IC50 [8] [nM] | Structure (SMILES)
1 | 3710 | 35 | 6.2 | 96.4 |  |  |  |  | NC(=O)c1ncc2cc(-c3ccccc3)c(-c3ccc(CN4CCC(c5nnc(-c6ccccn6)[nH]5)CC4)cc3)nc2n1
2 | 9260 | 928 | 29 | 560 |  |  |  |  | CSc1ncc2cc(-c3ccccc3)c(-c3ccc(CN4CCC(C(N)=O)CC4)cc3)nc2n1
3 | 1130 | 301 | 9.7 | 133 |  |  |  |  | CSc1ncc2cc(-c3ccccc3)c(-c3ccc(CN4CCC(C(=O)Nc5ccncc5)CC4)cc3)nc2n1
4 |  | 1710 | 139 |  |  |  |  |  | CSc1ncc2cc(-c3ccccc3)c(-c3ccc(CNCCc4nc[nH]n4)cc3)nc2n1
5 |  | 1790 | 162 |  |  |  |  |  | CSc1ncc2cc(-c3ccccc3)c(-c3ccc(CNCCc4nnc(C)[nH]4)cc3)nc2n1
6 | 586 | 59 | 24 | 100 |  |  |  |  | N#Cc1ncc2cc(-c3ccccc3)c(-c3ccc(CN4CCC(c5nnc(-c6ccccn6)[nH]5)CC4)cc3)nc2n1
7 | 899 | 94.4 | 6 | 20.3 | 2470 | > 50000 | > 50000 | > 50000 | CNc1ncc2cc(-c3ccccc3)c(-c3ccc(CN4CCC(c5nnc(-c6ccccn6)[nH]5)CC4)cc3)nc2n1
8 |  | 494 | 63 |  |  |  |  |  | CSc1ncc2cc(-c3ccccc3)c(-c3ccc(CNCCc4nnc(-c5ccccc5)[nH]4)cc3)nc2n1
9 |  | 1160 | 90 |  |  |  |  |  | CSc1ncc2cc(-c3ccccc3)c(-c3ccc(CNCCc4cccnc4)cc3)nc2n1
10 |  | 1300 | 226 |  |  |  |  |  | CSc1ncc2cc(-c3ccccc3)c(-c3ccc(CNCCC(N)=O)cc3)nc2n1
11 |  | 1380 | 198 |  |  |  |  |  | CSc1ncc2cc(-c3ccccc3)c(-c3ccc(CNCCc4nccs4)cc3)nc2n1
12 |  | 2110 | 91 |  |  |  |  |  | CSc1ncc2cc(-c3ccccc3)c(-c3ccc(CN4CCC(C(=O)NCCC(N)=O)CC4)cc3)nc2n1
13 |  | 17500 | 1520 |  |  |  |  |  | CSc1ncc2cc(-c3ccccc3)c(-c3ccc(CN(C)CCc4cn[nH]c4)cc3)nc2n1
14 | 589 | 26 | 3.8 | 9.3 |  |  |  |  | CSc1ncc2cc(-c3ccccc3)c(-c3ccc(CN4CCC(c5nnc(-c6ccccn6)[nH]5)CC4)cc3)nc2n1
15 | 5300 | 1910 | 81 | 795 |  |  |  |  | CCNC(=O)NC1CCN(Cc2ccc(-c3nc4nc(SC)ncc4cc3-c3ccccc3)cc2)CC1
16 |  | 1510 | 137 |  |  |  |  |  | CSc1ncc2cc(-c3ccccc3)c(-c3ccc(CNCCCn4ccnc4)cc3)nc2n1
17 |  | 5130 | 286 |  |  |  |  |  | CSc1ncc2cc(-c3ccccc3)c(-c3ccc(CN4CCC(NC(=O)CNC(C)=O)CC4)cc3)nc2n1
18 |  | 8920 | 765 |  |  |  |  |  | CSc1ncc2cc(-c3ccccc3)c(-c3ccc(CNCCCN4CCN(C)CC4)cc3)nc2n1
19 | 1570 | 267 | 8.5 | 79 |  |  |  |  | CSc1ncc2cc(-c3ccccc3)c(-c3ccc(CN4CCC(c5nnc(N)s5)CC4)cc3)nc2n1
20 |  | 1240 | 99 |  |  |  |  |  | CSc1ncc2cc(-c3ccccc3)c(-c3ccc(CNCCc4c[nH]cn4)cc3)nc2n1
21 | 2300 | 107 | 23.6 | 42.6 |  |  |  |  | COc1ncc2cc(-c3ccccc3)c(-c3ccc(CN4CCC(c5nnc(-c6ccccn6)[nH]5)CC4)cc3)nc2n1
22 |  | 529 | 46 |  |  |  |  |  | CSc1ncc2cc(-c3ccccc3)c(-c3ccc(CNCCc4nnc(N)s4)cc3)nc2n1
23 | 828 | 44 | 4 | 60 |  |  |  |  | CSc1ncc2cc(-c3ccccc3)c(-c3ccc(CN4CCC(n5ncc6c(N)ncnc65)CC4)cc3)nc2n1
24 | 468 | 99 | 14 | 295 |  |  |  |  | Nc1ncnc2nc(-c3ccc(CN4CCC(n5ncc6c(N)ncnc65)CC4)cc3)c(-c3ccccc3)cc12
25 |  | 1300 | 64 |  |  |  |  |  | CSc1ncc2cc(-c3ccccc3)c(-c3ccc(CN4CCC(c5nc(-c6cccnc6)no5)CC4)cc3)nc2n1
26 | 635 | 57 | 4.5 | 85 |  |  |  |  | CSc1ncc2cc(-c3ccccc3)c(-c3ccc(CN4CCC(c5cc(-c6ccncc6)[nH]n5)CC4)cc3)nc2n1
27 | 1810 | 239 |  |  |  |  |  |  | Nc1ncnc2nc(-c3ccc(CN4CCC(c5nc6ccc(F)cc6[nH]5)CC4)cc3)c(-c3ccccc3)cc12
28 |  | 90 | 15 |  |  |  |  |  | CSc1ncc2cc(-c3ccccc3)c(-c3ccc(CNCCC(=O)c4ccccc4N)cc3)nc2n1
